Columns and labels:
5-LOX enzyme = assay: 5-Lipoxygenase (5-LOX) inhibitory assay (colorimetric LOX inhibitor screening kit); type: biochemical; conditions: isolated compounds
Procedure: The LOX inhibitor screening assay was carried out colorimetrically, as per the manufacturer’s instructions (Cayman Chemical Company, MI, USA). […] To initiate the enzymatic reaction, introduce 10 µL of 1 mM arachidonic acid and shake the plate for 5 min.
To halt the enzymatic process and promote colour formation, 100 µL of chromogen from the test kit was used. The plate was then shaken for a further 5 min before the absorbance at 490 nm was measured with a microplate reader.

lipoxygenase = system: lipoxygenase; design: method as in PMID 26134247; conditions: dose of 0.5 mM; cited from earlier work
ovine COX-1 = target: T1, ovine COX-1 (Ovis aries, UniProt P05979); assay: COX-1 inhibition assay (colorimetric COX (ovine) inhibitor screening kit)
T1 sequence (P05979 25-600): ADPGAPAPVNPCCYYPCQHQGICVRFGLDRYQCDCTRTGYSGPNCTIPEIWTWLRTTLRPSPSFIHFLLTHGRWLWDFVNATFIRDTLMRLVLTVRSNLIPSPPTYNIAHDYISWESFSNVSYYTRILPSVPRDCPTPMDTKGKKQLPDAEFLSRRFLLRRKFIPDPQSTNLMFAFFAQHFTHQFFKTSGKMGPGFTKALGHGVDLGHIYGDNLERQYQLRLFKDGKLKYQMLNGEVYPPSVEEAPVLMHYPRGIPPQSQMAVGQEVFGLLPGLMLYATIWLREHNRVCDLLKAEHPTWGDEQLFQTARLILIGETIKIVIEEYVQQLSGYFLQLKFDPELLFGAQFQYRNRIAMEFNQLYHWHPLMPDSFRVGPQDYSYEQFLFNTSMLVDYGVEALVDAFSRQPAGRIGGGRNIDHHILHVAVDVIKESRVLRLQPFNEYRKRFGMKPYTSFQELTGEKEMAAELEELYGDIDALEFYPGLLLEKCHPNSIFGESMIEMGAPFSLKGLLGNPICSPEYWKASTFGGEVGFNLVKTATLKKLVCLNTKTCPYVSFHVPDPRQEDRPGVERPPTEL
Procedure: COX-1 and 2 inhibition assay kits (K548-100 and K547-100) were purchased from Biovision Inc., California, USA. […] The absorbances were measured using a Tecan microplate reader (Infinite F50, Switzerland). […] Sigma Chemical Company (CA, USA) supplied the reagents utilized in biological experiments.
To prepare a stock concentration of 5 mg/mL, the extract and its constituent fractions were dissolved in 100% DMSO. In triplicate, samples were serially diluted from 0.1 µg/mL to 100 µg/mL. The inhibitory activity of COX was determined using a colorimetric approach, as previously described [13], and using the Cayman colorimetric COX (ovine) inhibitor screening test kit (Cayman Chemical Company, MI, USA) according to the manufacturer’s instructions. […] After initiating the reaction with 10 µL of 10 mM arachidonic acid, the mixture was incubated at 37 °C for another 2 min. To stop the reaction, 50 µL of 1 N HCl and saturated stannous chloride were added. The assays were run using 100 U of ovine COX-1 and COX-2. […] Results were presented as IC50 (µg/mL) [13].

[1] = system: carrageenan-induced rat paw edema; design: method as in PMID 12241987; conditions: cited from earlier work
soybean 5-LOX = system: soybean 5-LOX; design: method as in doi:10.1007/s00044-016-1677-9; conditions: in vitro; cited from earlier work

| SMILES | IC50 (5-LOX enzyme) [µM] | inhibition of lipoxygenase (lipoxygenase) | IC50 (ovine COX-1) [µM] | anti-inflammatory effect in carrageenan-induced rat paw edema [1] | suppression of soybean 5-LOX (soybean 5-LOX) |
| --- | --- | --- | --- | --- | --- |
| COC(=O)C1=COC(OC2OC(CO)C(O)C(O)C2O)C2C1(O)CC(O)C2(C)O (stereo not shown) [Compound 2, lamiide] | 4.9 ± 0.4 | moderate inhibition | 8.5 ± 0.2 | anti-inflammatory properties | suppresses |
| COC(=O)C1=COC(OC2OC(CO)C(O)C(O)C2O)C2C1(O)CC(OC(=O)C=Cc1ccc(OC)c(O)c1)C2(C)O (stereo not shown) [Compound 1, duranterectoside A] | 2.6 ± 0.1 | – | 7.3 ± 0.9 | – | – |
